pIC50: −log10 of the molar value.
Tests used:
[1] = tested on: KPL-4 breast cancer cell line; test: Tumor cell proliferation assay (CellTiter-Glo); format: cell-based; details: KPL4, 72 h drug exposure
Experimental: Compounds were tested in a cell-based assay that measures the capacity of the compounds to inhibit tumour cell proliferation following a 72 h drug exposure. Cell viability is determined using CellTiter-Glow® (CTG, Promega, cat #G7571/2/3). The CellTiter-Glo® Luminescent Cell Viability Assay is a homogeneous method to determine the number of viable cells in culture. Detection is based on using the luciferase reaction to measure the amount of ATP from viable cells. The amount of ATP in cells correlates with cell viability. Within minutes after a loss of membrane integrity, cells lose the ability to synthesize ATP, and endogenous ATPases destroy any remaining ATP; thus the levels of ATP fall precipitously.
Cells were plated at 3000-5000 cells/well (depending on the cell lines) in 90 μL growth medium on MTPs (Corning; #3603, black plate, clear flat bottom). For each cell line assayed, cells were plated onto a separate plate for determination of […] at t=0 hour and t=72 hour time points. Following overnight incubation at 37° C., chemiluminescence values for the t=0 samples were determined after adding 10 μl medium and 100 μl CTG solution according to manufacture protocol. Plates for the t=72 hour time points were treated with compounds diluted into growth medium at ten times final concentration added in 10 μL to the cell culture plate. Cells were then incubated for 72 hours at 37° C. Chemiluminescence values for the t=72 hour samples were determined. […] Experiments were controlled using a reference compound as standard.

[2] = target: T1, His-tagged human recombinant kinase full-length Akt1 (Homo sapiens, UniProt P31749); test: Akt1 kinase assay (TR-FRET); format: biochemical; details: 10 μM ATP, 60 min at 22° C., read-out: Akt1, median IC50
T1 construct: His-tagged human recombinant kinase full-length Akt1; His; purchased Invitrogen PV 3599; host or cells: insect cells
T1 sequence (P31749 whole entry): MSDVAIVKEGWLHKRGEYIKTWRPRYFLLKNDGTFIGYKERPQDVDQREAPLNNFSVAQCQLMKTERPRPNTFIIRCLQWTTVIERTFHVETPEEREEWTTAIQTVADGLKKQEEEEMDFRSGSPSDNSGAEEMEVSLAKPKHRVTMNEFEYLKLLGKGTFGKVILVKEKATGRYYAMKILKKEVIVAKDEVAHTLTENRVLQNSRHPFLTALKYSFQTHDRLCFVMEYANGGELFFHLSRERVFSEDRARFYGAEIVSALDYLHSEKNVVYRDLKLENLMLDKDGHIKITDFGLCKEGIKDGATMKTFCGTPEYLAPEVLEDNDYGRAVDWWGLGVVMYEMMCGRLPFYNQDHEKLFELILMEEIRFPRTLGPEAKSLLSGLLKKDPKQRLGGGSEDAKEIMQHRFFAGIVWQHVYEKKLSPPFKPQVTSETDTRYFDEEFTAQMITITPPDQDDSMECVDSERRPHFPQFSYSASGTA
Text: Akt1 inhibitory activity of compounds of the present invention was quantified employing the Akt1 TR-FRET assay as described in the following paragraphs.
(§1) His-tagged human recombinant kinase full-length Akt1 expressed in insect cells was purchased form Invitrogen (part number PV 3599). As substrate for the kinase reaction the biotinylated peptide biotin-Ahx-KKLNRTLSFAEPG (C-terminus in amide form) was used which can be purchased e.g. from the company Biosynthan GmbH (Berlin-Buch, Germany).
(§2) For the assay 50 nl of a 100 fold concentrated solution of the test compound in DMSO was pipetted into a black low volume 384well microtiter plate (Greiner Bio-One, Frickenhausen, Germany), 2 μl of a solution of Akt1 in assay buffer [50 mM TRIS/HCl pH 7.5, 5 mM MgCl2, 1 mM dithiothreitol, 0.02% (v/v) Triton X-100 (Sigma)] were added and the mixture was incubated for 15 min at 22° C. to allow pre-binding of the test compounds to the enzyme before the start of the kinase reaction. Then the kinase reaction was started by the addition of 3 μl of a solution of adenosine-tri-phosphate (ATP, 16.7 μM=>final conc. in the 5 μl assay volume is 10 μM) and substrate (1.67 μM=>final conc. in the 5 μl assay volume is 1 μM) in assay buffer and the resulting mixture was incubated for a reaction time of 60 min at 22° C. The concentration of Akt1 in the assay was adjusted depending of the activity of the enzyme lot and was chosen appropriate to have the assay in the linear range, typical enzyme concentrations were in the range of about 0.05 ng/μl (final conc. in the 5 μl assay volume).
The reaction was stopped by the addition of 5 μl of a solution of HTRF detection reagents (200 nM streptavidine-XL665 [Cisbio] and 1.5 nM anti-phosho-Serine antibody [Millipore, cat. #35-001] and 0.75 nM LANCE Eu-W 1024 labeled anti-mouse IgG antibody [Perkin Elmer]) in an aqueous EDTA-solution (100 mM EDTA, 0.1% (w/v) bovine serum albumin in 50 mM HEPES/NaOH pH 7.5). The resulting mixture was incubated 1 h at 22° C. to allow the binding of the biotinylated phosphorylated peptide to the streptavidine-XL665 and the antibodies. Subsequently the amount of phosphorylated substrate was evaluated by measurement of the resonance energy transfer from the anti-mouse-IgG-Eu-Chelate to the streptavidine-XL665. Therefore, the fluorescence emissions at 620 nm and 665 nm after excitation at 350 nm was measured in a HTRF reader, e.g. a Rubystar (BMG Labtechnologies, Offenburg, Germany) or a Viewlux (Perkin-Elmer). The ratio of the emissions at 665 nm and at […] was taken as the measure for the amount of phosphorylated substrate. The data were normalised (enzyme reaction without inhibitor=0% inhibition, all other assay components but no enzyme=100% inhibition).

[3] = target: T2, His-tagged human recombinant kinase full-length Akt2 (Homo sapiens, UniProt P31751); test: Akt2 kinase assay (TR-FRET); format: biochemical; details: 10 μM ATP, 60 min at 22° C., read-out: Akt2, median IC50
T2 construct: His-tagged human recombinant kinase full-length Akt2; His; purchased Invitrogen PV 3975; host or cells: insect cells
T2 sequence (P31751 whole entry): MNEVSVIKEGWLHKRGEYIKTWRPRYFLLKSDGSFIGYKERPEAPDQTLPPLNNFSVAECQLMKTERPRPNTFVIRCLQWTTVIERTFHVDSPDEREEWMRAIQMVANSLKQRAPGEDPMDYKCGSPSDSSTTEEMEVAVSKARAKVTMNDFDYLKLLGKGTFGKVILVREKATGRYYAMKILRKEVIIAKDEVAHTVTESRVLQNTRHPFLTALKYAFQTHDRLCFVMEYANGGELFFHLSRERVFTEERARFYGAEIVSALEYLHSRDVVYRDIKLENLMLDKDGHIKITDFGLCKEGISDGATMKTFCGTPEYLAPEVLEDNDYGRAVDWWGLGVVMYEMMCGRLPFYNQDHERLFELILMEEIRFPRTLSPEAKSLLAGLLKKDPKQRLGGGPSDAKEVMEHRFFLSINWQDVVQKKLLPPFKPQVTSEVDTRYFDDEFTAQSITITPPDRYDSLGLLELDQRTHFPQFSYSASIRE
Text: Akt2 inhibitory activity of compounds of the present invention was quantified employing the Akt2 TR-FRET assay as described in the following paragraphs.
as §1, with “Akt2” for “Akt1”, “cells and activated by PDK1” for “cells”, “3975).” for “3599).”
as §2, with “Akt2” for “Akt1”, “0.2” for “0.05”
The reaction was stopped by the addition of 5 μl of a solution of HTRF detection reagents (200 nM streptavidine-XL665 [Cisbio] and 1.5 nM anti-phosho-Serine antibody [Millipore, cat. #35-001] and 0.75 nM LANCE Eu-W 1024 labeled anti-mouse IgG antibody [Perkin Elmer]) in an aqueous EDTA-solution (100 mM EDTA, 0.1% (w/v) bovine serum albumin in 50 mM HEPES/NaOH pH 7.5).
The resulting mixture was incubated 1 h at 22° C. to allow the binding of the biotinylated phosphorylated peptide to the streptavidine-XL665 and the antibodies.
Subsequently the amount of phosphorylated substrate was evaluated by measurement of the resonance energy transfer from the anti-mouse-IgG-Eu-Chelate to the streptavidine-XL665. Therefore, the fluorescence emissions at 620 nm and 665 nm after excitation at 350 nm was measured in a TR-FRET reader, e.g. a Rubystar (BMG Labtechnologies, Offenburg, Germany) or a Viewlux (Perkin-Elmer). The ratio of the emissions at 665 nm and at […] was taken as the measure for the amount of phosphorylated substrate. The data were normalised (enzyme reaction without inhibitor=0% inhibition, all other assay components but no enzyme=100% inhibition).

[4] = tested on: phospho-AKT at S473 in KPL4 breast tumour cell line; test: Cellular p-AKT1/2/3-S473 assay; format: cell-based; details: KPL4 cells, treated with compounds for 2 hours; read-out: pAKT-S743 median IC50
Experimental: The molecular mechanism of action was investigated in a set of experiments to assess the inhibition of the PI3K-AKT-mTOR pathway in responsive cell lines such as KPL4 breast tumour cell line (PIK3CAH1047R, HER20/E and hormone independent). The phospho-substrates of PI3K-AKT-mTOR axis were used as the read-outs to reflect pathway inhibition. Cells were seeded at 60-80% confluency per well in 96-well cell culture plates. After overnight incubation at 37° C. 5% CO2, cells were treated with compounds and vehicle at 37° C. for 2 hours. Thereafter, cells were lysed in 150 μl lysis buffer and the levels of phospho-AKT at T308 and S473 and p-4E-BP1 at T70 sites were determined with the corresponding AlphaScreen® SureFire® assay kits (Perkin Elmer: 4E-BP1 Assay Kit Cat # TRG4E2S10K; Akt 1/2/3 p-Ser 473 #TGRA4S500 and Akt 1/2/3 p-Thr 308 #TGRA3S500 as well as IgG detection Kit #6760617M) as described in the manuals. All measurements where at least done in duplicates and confirmed by independent repetition.
Alternatively pAKT-S473 was measured using the “Akt Duplex” of the MULTI-SPOT® Assay System (Fa. Meso Scale Discovery, Cat#N41100B-1) following manufacturers instructions. Each assay used 20 μg of protein extract and measured total AKT and p-AKT content simultaneously in one well. All measurements where at least done in duplicates and confirmed by independent repetition. Values for P-AKT are expressed as percentage of P-AKT level compared to total-AKT content of the extracts.

SMILES	pIC50 [1]	pIC50 [2]	pIC50 [3]	pIC50 [4]
NC1(c2ccc(-c3nc4nc(Nc5ccccc5)nn4cc3-c3ccccc3)cc2)CCC1 [Example 5-4, {5-[4-(1-Amino-cyclobutyl)-phenyl]-6-phenyl-[1,2,4]triazolo[1,5-a]pyrimidin-2-yl}-phenyl-amine]	5.21	6.55	6.71	–
CC(C)Nc1nc2nc(-c3ccc(C4(N)CCC4)cc3)c(-c3ccccc3)cn2n1 [Example 5-5, {5-[4-(1-amino-cyclobutyl)-phenyl]-6-phenyl-[1,2,4]triazolo[1,5-a]pyrimidin-2-yl}-isopropyl-amine]	5.66	5.83	6.63	–
Cc1nc2nc(-c3ccc(C4(N)CCC4)cc3)c(-c3ccccc3)c(NC3CCC3)n2n1 [Example 5-8, {5-[4-(1-amino-cyclobutyl)-phenyl]-2-methyl-6-phenyl-[1,2,4]triazolo[1,5-a]pyrimidin-7-yl}-cyclobutyl-amine]	5.44	6.14	6.52	–
NC1(c2ccc(-c3nc4ncc(-c5ccc(F)c(CO)c5)n4cc3-c3ccccc3)cc2)CCC1 [Example 6-1, (5-{7-[4-(1-Amino-cyclobutyl)-phenyl]-6-phenyl-imidazo[1,2-a]pyrimidin-3-yl}-2-fluoro-phenyl)-methanol]	5.68	–	6.20	6.27
